Results published in the ASAP Discovery antiviral challenge data (2025).
Converted amounts (≈) assume the structure as drawn. “And” between values parts separate entries of the source, which are not always exact repeats. Equal entries are not always repeated.

How the values were obtained:
[1] = mdck_mdr1
[2] = not given; remark: listed apart in the source
[3] = human; liver_microsomes
[4] = mouse; liver_microsomes

| SMILES | Papp [1] | logD | solubility kinetic [2] | microsomal CLint [3] | microsomal CLint [4] |
| --- | --- | --- | --- | --- | --- |
| CCOc1cccc(-c2ccc(S(=O)(=O)Nc3ccc(Cl)cc3C(=O)O)cc2)c1 | 6.22 ×10⁻⁶ cm/s | 2.8 | 392 µM (≈ 169 µg/mL) | 119 µL/min/mg |  |
| COc1cc(-c2cc(NC(=O)c3cc(F)cc4[nH]ncc34)cc3c2CNC3)ccn1 | 0.788 ×10⁻⁶ cm/s | 2 | 180 µM (≈ 72.6 µg/mL) |  | 260 µL/min/mg |
| Cc1c(C(=O)Nc2cc(-c3cccnc3)ccn2)cc(C2CC2)n1C | 13.5 ×10⁻⁶ cm/s |  | 176 µM (≈ 58.5 µg/mL) |  | 388 µL/min/mg |
| Cc1cc(OCc2ccccc2)ccc1NS(=O)(=O)c1ccc(Cl)cc1C(=O)O | 4.61 ×10⁻⁶ cm/s | 2.7 | 394 µM (≈ 170 µg/mL) | 22.3 µL/min/mg |  |
| Cn1c(=O)[nH]c2c(C(=O)Nc3ccc4c(c3)CNC4)cc(Br)cc21 | 0.805 ×10⁻⁶ cm/s | 0.5 | 161 µM (≈ 62.3 µg/mL) |  | 12.5 µL/min/mg |
| Cn1cc2c(C(=O)Nc3ccc4c(c3)CNC4)cc(F)cc2n1 | 3.4 ×10⁻⁶ cm/s | 0.2 | 309 µM (≈ 95.9 µg/mL) |  | 18.2 µL/min/mg |
| N#Cc1cccc(-c2nc3c(C(=O)Nc4ccc5c(c4)CNC5)cc(F)cc3[nH]2)c1 |  | 2 | 3 µM (≈ 1.19 µg/mL) |  | 22 µL/min/mg |
| NCCc1ccc(NC(=O)c2cc(Cl)cc(NC(=O)OCc3ccccc3)c2)cc1 | 0.791 ×10⁻⁶ cm/s | 2.9 | 88 µM (≈ 37.3 µg/mL) | 17.5 µL/min/mg |  |
| NCc1cccc(NC(=O)CN(C(=O)OCc2ccccc2)c2ccc(OCc3ccccc3)cc2)c1 | 0.899 ×10⁻⁶ cm/s | 2.9 | 56 µM (≈ 27.8 µg/mL) | 11 µL/min/mg |  |
| NCc1cccc(NC(=O)c2cc(Cl)cc(CN)c2)c1 | 1.96 ×10⁻⁶ cm/s | -0.6 | 375 µM (≈ 109 µg/mL) | 21 µL/min/mg |  |
| NCc1cccc(NC(=O)c2cc(OCc3ccccc3)ccc2CNC(=O)OCc2ccccc2)c1 | 1.75 ×10⁻⁶ cm/s | 2.8 | 14 µM (≈ 6.94 µg/mL) | 21 µL/min/mg |  |
| Nc1nc(-c2ccccc2)nc2[nH]nc(Nc3ccc(C(F)(F)F)cc3)c12 | 1.76 ×10⁻⁶ cm/s |  | 2 µM (≈ 0.741 µg/mL) |  | 11.2 µL/min/mg |
| O=C(Nc1cc(Cl)cc(C(=O)Nc2ccc3c(c2)CNC3)c1)OCc1ccccc1 | 1.25 ×10⁻⁶ cm/s | 2.8 | 35 µM (≈ 14.8 µg/mL) | 12.7 µL/min/mg |  |
| O=C(Nc1cc(Cl)cc(C(=O)Nc2cccc(-n3nn[nH]c3=O)c2)c1)OCc1ccccc1 | 9.46 ×10⁻⁶ cm/s | 3.8 | 107 µM (≈ 49.7 µg/mL) | 11.2 µL/min/mg |  |
| O=C(Nc1cc2c(c(-c3c[nH]c(=O)c(F)c3)c1)CNC2)c1cc(F)cc2[nH]ncc12 | 0.651 ×10⁻⁶ cm/s | 0.4 | 66 µM (≈ 26.9 µg/mL) |  | 243 µL/min/mg |
| O=C(Nc1cc2c(c(C3=CCOCC3)c1)CNC2)c1cc(F)cc2[nH]ncc12 | 1.1 ×10⁻⁶ cm/s | 0.9 | 157 µM (≈ 59.4 µg/mL) |  | 152 µL/min/mg |
| O=C(Nc1cc2c(c(C3=CCS(=O)(=O)CC3)c1)CNC2)c1cc(F)cc2[nH]ncc12 | 1.3 ×10⁻⁶ cm/s | -0.1 | 141 µM (≈ 60.1 µg/mL) |  | 96.9 µL/min/mg |
| O=C(Nc1cc2c(cc1C1CC1)CNC2)c1cc(F)cc2[nH]ncc12 | 3.41 ×10⁻⁶ cm/s | 0.7 | 189 µM (≈ 63.6 µg/mL) |  | 86.8 µL/min/mg |
| O=C(Nc1ccc2c(c1)CNC2)c1cc(Cl)cc2[nH]ncc12 | 1.8 ×10⁻⁶ cm/s | 0.9 | 279 µM (≈ 87.3 µg/mL) |  | 243 µL/min/mg |
| O=C(Nc1ccc2c(c1)CNC2)c1cc(Cl)cc2c1cnn2C1CCC1 | 1 ×10⁻⁶ cm/s | 2 | 172 µM (≈ 63.1 µg/mL) |  | 13.4 µL/min/mg |
| O=C(Nc1ccc2c(c1)CNC2)c1cc(Cl)cc2ccncc12 | 3.42 ×10⁻⁶ cm/s | 0.6 | 181 µM (≈ 58.6 µg/mL) |  | 24.5 µL/min/mg |
| O=C(Nc1ccc2c(c1)CNC2)c1cc(Cl)cc2cn[nH]c12 | 4.63 ×10⁻⁶ cm/s | 1.2 | 184 µM (≈ 57.5 µg/mL) |  | 54 µL/min/mg |
| O=C(Nc1ccc2c(c1)CNC2)c1cc(F)cc2[nH]c(-c3ccc(F)cc3)nc12 | 0.1 ×10⁻⁶ cm/s | 2.9 | 6 µM (≈ 2.34 µg/mL) |  | 36.8 µL/min/mg |
| O=C(Nc1ccc2c(c1)CNC2)c1cc(F)cc2[nH]ncc12 | 1.59 ×10⁻⁶ cm/s |  |  |  | 180 µL/min/mg |
| O=C(Nc1ccc2c(c1)CNC2)c1cc(F)cc2c1CCC2 | 10.7 ×10⁻⁶ cm/s | 1.2 | 187 µM (≈ 55.4 µg/mL) |  | 37.4 µL/min/mg |
| O=C(O)c1cc(Cl)c(F)cc1S(=O)(=O)Nc1ccc(Oc2ccccc2Cl)cc1 | 4.29 ×10⁻⁶ cm/s | 3.3 | 396 µM (≈ 181 µg/mL) | 67.4 µL/min/mg |  |

| SMILES | Papp [1] | logD | solubility kinetic [2] | microsomal CLint [3] | microsomal CLint [4] |
| --- | --- | --- | --- | --- | --- |
| O=C(O)c1cc(Cl)ccc1NS(=O)(=O)c1ccc(-c2ccccc2Cl)cc1 | 7.59 ×10⁻⁶ cm/s | 3.6 | 397 µM (≈ 168 µg/mL) | 343 µL/min/mg |  |
| O=C(O)c1cc(Cl)ccc1S(=O)(=O)NC1CCN(c2nc(C3CC3)cc(C(F)(F)F)n2)CC1 | 3.65 ×10⁻⁶ cm/s | 2.8 | 380 µM (≈ 192 µg/mL) | 26.3 µL/min/mg |  |
| C=CC[C@H](Nc1cccc(-c2nn[nH]n2)c1)c1cc(Cl)cc(NC(=O)OCc2ccccc2)c1 (racemic) | 1.24 ×10⁻⁶ cm/s | 4.1 | 332 µM (≈ 158 µg/mL) | 65.5 µL/min/mg |  |
| CC(C)NC(=O)[C@H](Nc1ccc2c(c1)CNC2)c1cc(Cl)cc2[nH]c(-c3ccccc3)nc12 (racemic) | 0.432 ×10⁻⁶ cm/s | 2.9 | 154 µM (≈ 70.8 µg/mL) | 23.2 µL/min/mg |  |
| CC[C@H](Cc1nnn[nH]1)c1ccc(NC(=O)c2cc(Cl)cc(NC(=O)OCc3ccccc3)c2)cc1 (racemic) | 2.79 ×10⁻⁶ cm/s | 4.1 | 60 µM (≈ 30.3 µg/mL) | 24.9 µL/min/mg |  |
| CNC(=O)[C@H](Nc1cc(Cl)cc(NC(=O)OCc2ccccc2)c1)c1cccc(-c2nn[nH]n2)c1 (racemic) | 1.39 ×10⁻⁶ cm/s | 2.2 | 333 µM (≈ 164 µg/mL) | 21.3 µL/min/mg |  |
| COc1ccc([C@H](Cc2nnn[nH]2)NC(=O)c2ncnc3[nH]ccc23)cc1 (racemic) | 1.39 ×10⁻⁶ cm/s | -0.1 | 395 µM (≈ 144 µg/mL) | 5 µL/min/mg |  |
| Cc1cc(-c2ccc([C@H](NC(=O)OCc3ccccc3)C(=O)Nc3cccc(CN)c3)cc2)cs1 (racemic) | 1.19 ×10⁻⁶ cm/s |  | 8 µM (≈ 3.88 µg/mL) | 29.5 µL/min/mg |  |
| N#C[C@H](Nc1ccc2c(c1)CNC2)c1cc(Cl)cc2[nH]ncc12 (racemic) | 1.1 ×10⁻⁶ cm/s | 0.9 | 297 µM (≈ 96.2 µg/mL) | 10.3 µL/min/mg |  |
| N#C[C@H](Nc1cccc(-c2nn[nH]n2)c1)c1cc(Cl)cc(NC(=O)OCc2ccccc2)c1 (racemic) | 3.23 ×10⁻⁶ cm/s | 3.2 | 344 µM (≈ 158 µg/mL) | 13.6 µL/min/mg |  |
| N#C[C@H](Nc1cccc(C(=O)O)c1)c1cc(Cl)cc2[nH]ncc12 (racemic) | 1.22 ×10⁻⁶ cm/s | 0.6 | 112 µM (≈ 36.6 µg/mL) | 12 µL/min/mg |  |
| NCc1cccc(NC(=O)C[C@H](NC(=O)OCc2ccccc2)c2ccc(OCc3ccccc3)c(Br)c2)c1 (racemic) | 0.783 ×10⁻⁶ cm/s |  | 21 µM (≈ 12.4 µg/mL) | 12.4 µL/min/mg |  |
| NCc1cccc([C@H]2C[C@@H]2c2cc(Cl)cc(NC(=O)OCc3ccccc3)c2)c1 (racemic) | 1.66 ×10⁻⁶ cm/s |  | 50 µM (≈ 20.3 µg/mL) | 11.4 µL/min/mg |  |
| O=C(N[C@H]1[C@H]2CCCCC[C@H]2[C@H]1C(=O)Nc1cccc(C2CCNCC2)c1)OCc1ccccc1 (racemic) | 0.395 ×10⁻⁶ cm/s | 2.8 | 49 µM (≈ 23.3 µg/mL) | 31.3 µL/min/mg |  |
| CC(C)NC(=O)[C@H](Nc1ccc2c(c1)CNC2)c1cc(Cl)cc2[nH]c(-c3ccccc3)nc12 (single isomer, unassigned) | 0.2 ×10⁻⁶ cm/s | 2.8 | 134 µM (≈ 61.6 µg/mL) |  | 11 µL/min/mg |
| CC(C)[C@H](Nc1ncnc2[nH]c(-c3cnn(CC(=O)N(C)C)c3)cc12)c1ccc2c(c1)OCCO2 (single isomer, unassigned) | 2.05 ×10⁻⁶ cm/s and 1.62 ×10⁻⁶ cm/s | 2.9 and 3 |  |  | 35 µL/min/mg and 45 µL/min/mg |
| CC(C)[C@H](Nc1ncnc2[nH]c(-c3cnn(CC(N)=O)c3)cc12)c1ccc2c(c1)OCCO2 (single isomer, unassigned) | 1.09 ×10⁻⁶ cm/s and 1.87 ×10⁻⁶ cm/s | 2.9 | 280 µM and 332 µM |  | 16 µL/min/mg and 42 µL/min/mg |
| CC(C)[C@H](Nc1ncnc2[nH]c(C(=O)N[C@H]3CCN(C)C3)cc12)c1ccc2c(c1)S(=O)(=O)CCC2 (single isomer, unassigned) | 0.175 ×10⁻⁶ cm/s and 0.325 ×10⁻⁶ cm/s | 1.4 and 1.5 | 396 µM and 392 µM | 11 µL/min/mg and 26 µL/min/mg |  |
| CC(C)[C@H](Nc1ncnc2[nH]ccc12)c1ccc2c(c1)NC(=O)CO2 (single isomer, unassigned) | 3.4 ×10⁻⁶ cm/s and 8.7 ×10⁻⁶ cm/s | 1.8 and 2.2 | 371 µM and 374 µM |  | 37 µL/min/mg and 80 µL/min/mg |
| CC(C)[C@H](Nc1ncnc2[nH]ccc12)c1ccc2c(c1)S(=O)(=O)CCC2 (single isomer, unassigned) | 5.5 ×10⁻⁶ cm/s and 3.55 ×10⁻⁶ cm/s | 2.7 and 2.5 | 374 µM and 386 µM | 57 µL/min/mg and 21 µL/min/mg |  |
| CCNC(=O)c1cc2c(N[C@H](c3ccc4c(c3)OCCO4)C(C)C)ncnc2[nH]1 (single isomer, unassigned) | 2.7 ×10⁻⁶ cm/s and 2.9 ×10⁻⁶ cm/s | 3.6 |  |  | 48 µL/min/mg and 72 µL/min/mg |
| CCNC(=O)c1cc2c(N[C@H](c3ccc4c(c3)S(=O)(=O)CCC4)C(C)C)ncnc2[nH]1 (single isomer, unassigned) | 0.717 ×10⁻⁶ cm/s and 0.532 ×10⁻⁶ cm/s | 2.7 and 2.8 | 337 µM and 316 µM |  | 64 µL/min/mg and 54 µL/min/mg |
| CNC(=O)c1c[nH]c2ncnc(N[C@H](c3ccc4c(c3)S(=O)(=O)CCC4)C(C)C)c12 (single isomer, unassigned) | 1.61 ×10⁻⁶ cm/s and 0.857 ×10⁻⁶ cm/s | 2.7 and 2.6 | 336 µM and 204 µM | 258 µL/min/mg and 108 µL/min/mg |  |
| CNC(=O)c1cc2c(N[C@H](c3ccc4c(c3)S(=O)(=O)CCC4)C(C)C)ncnc2[nH]1 (single isomer, unassigned) | 0.891 ×10⁻⁶ cm/s and 0.377 ×10⁻⁶ cm/s | 2.3 and 2.4 | 374 µM and 397 µM |  | 47 µL/min/mg and 23 µL/min/mg |
| CNC(=O)c1cccc(-c2cc3c(N[C@H](c4ccc5c(c4)S(=O)(=O)CCC5)C(C)C)ncnc3[nH]2)c1 (single isomer, unassigned) | 0.502 ×10⁻⁶ cm/s and 0.627 ×10⁻⁶ cm/s | 3.8 and 3.7 | 13 µM and 15 µM | 746 µL/min/mg and 455 µL/min/mg |  |
